Source: patent US9522123B2, “Use of one or a combination of phyto-cannabinoids in the treatment of epilepsy” (GW Pharma Limited, priority 2009, dated 2016)

Columns and labels:
[1] = test system: PTZ-induced seizures; experiment: PTZ (pentylenetetrazole)-induced model of generalised seizures; type: in vivo, rat
[2] = test system: pilocarpine-induced seizures; experiment: Pilocarpine-induced model of temporal lobe seizures; type: in vivo, rat; details: pilocarpine 380 mg/kg
Experimental: (§1) Pure THCV was injected intra-peritoneally (IP) in the standard vehicle (1:1:18 ethanol:Cremophor:0.9% w/v NaCl) at doses of 0.025, 0.25 and 2.5 mg/kg alongside animals that received vehicle alone at a matched volume (n≧14 for each group). 15 minutes later methylscopolamine (1 mg/kg; to reduce peripheral muscarinic effects of pilocarpine) was administered followed, 45 minutes later by pilocarpine (380 mg/kg, IP) administration.
as §1, with “CBD” for “THCV”, “1, 10” for “0.025, 0.25”, “100” for “2.5”

[3] = test system: penicillin-induced seizures; experiment: Penicillin-induced model of partial seizures; type: in vivo, rat; details: for development of the most severe seizures (tonic-clonic seizures without postural control): 150 IU penicillin
Experimental: CBD (1, 10 and 100 mg/kg) or CBD vehicle (1:1:18 ethanol:Cremophor: 0.9% w/v NaCl) was administered i.p. to adult male Wistar rats (>250 g). One week prior to this, animals had been surgically implanted with a cannula into the right lateral ventricle under anaesthesia. One hour after CBD administration, 150 IU penicillin was infused into the right lateral ventricle in 1.5 μl saline solution over one minute and seizure behaviour video recorded for two hours.
Following detailed examination of animal responses to penicillin alone (using data obtained from vehicle control groups, a finalised seizure scoring scale for penicillin-induced partial seizures has been derived. The following scoring system which was derived from several existing and published scoring systems for this model, will therefore be used for analysis of drug effects upon such seizures.

[4] = test system: seizures in institutionalized children; details: 5 institutionalized children not responding to phenobarbital and phenytoin; cited from earlier work

C=C(C)[C@@H]1CCC(C)=C[C@H]1c1c(O)cc(CCCCC)cc1O [CBD, cannabidiol]
animals that died (mortality) ([1]; 100 mg/kg CBD IP, 60 minutes before 80 mg/kg PTZ, p<0.001 vs vehicle): 6.7%
percentage mortality vs control ([2]; 10 mg/kg CBD): significant increase
percentage duration of time spent in a tonic-clonic state compared to the total duration of the seizure period ([2]; CBD 1 mg/kg and 100 mg/kg): significantly reduced
percentage of animals exhibiting tonic-clonic seizures ([2]; CBD 1 mg/kg and 100 mg/kg): significantly reduced
mean frequency of all other seizure scores ([2]; CBD 1, 10, 100 mg/kg vs control): no significant differences
mean tonic-clonic frequency ([2]; CBD all doses tested (1, 10, 100 mg/kg)): significant reduction
percentage of animals manifesting with bilateral forelimb clonus with rearing and falling ([2]; CBD doses >1 mg/kg): significantly reduces
percentage of animals showing unilateral forelimb clonus ([2]; CBD doses >1 mg/kg): significant decreases
latency to the onset of seizure ([2]; pure CBD 1, 10, 100 mg/kg IP): No significant effect
mean maximum severity of seizure ([2]; pure CBD 1, 10, 100 mg/kg): no effect
percentage of animals exhibiting bilateral forelimb clonus ([2]; pure CBD 1, 10, 100 mg/kg): no significant differences
frequency with which animals experienced the most severe seizures ([3]; 10 mg/kg CBD vs vehicle, p=0.071): near-significant effect
development of the most severe seizures (tonic-clonic seizures without postural control) ([3]; 100 mg/kg CBD i.p., p=0.001): completely prevented development
frequency with which animals experienced the most severe seizures ([3]; 100 mg/kg CBD vs vehicle, p=0.006): significant decrease
median severity of penicillin-induced seizures ([3]; 100 mg/kg CBD vs vehicle, p=0.012): significantly reduced
mortality compared to vehicle ([3]; 100 mg/kg CBD, p=0.057): near-significant effect
development of the most severe seizures (tonic-clonic seizures without postural control) ([3]; 1 and 10 mg/kg CBD i.p., p=0.076 for both): Near-significant decreases
proportion of animals that remained seizure-free ([3]; all doses of CBD (1, 10 and 100 mg/kg), p<0.001): significantly increased

CCCCCc1cc(O)c2c(c1)OC(C)(C)[C@@H]1CCC(C)=C[C@@H]21 [THC, tetrahydrocanibinol]
seizure outcome [4]: One became entirely free of seizures, one became almost completely free of seizures, and the other three did no worse than before

CCCc1cc(O)c2c(c1)OC(C)(C)[C@@H]1CCC(C)=C[C@@H]21 [THCV, tetrahydrocannabivarin]
latency to first manifestation of seizure-like behaviour ([1]; pure THCV 0.025, 0.25, 2.5 mg/kg vs vehicle, 80 mg/kg PTZ): increased latency
latency to score of [5] ([1]; pure THCV all doses, 80 mg/kg PTZ, p=0.013 at highest dose): increased latencies, reaching a significant level at the highest dose of THCV
latency to score of [3] ([1]; pure THCV all doses, 80 mg/kg PTZ, p=0.017 at highest dose): increased latencies, reaching a significant level at the highest dose of THCV
delay of seizure onset (latency to first seizure sign) ([1]; pure THCV highest dose 2.5 mg/kg, 80 mg/kg PTZ, p=0.02): delay of onset was significant
duration of PTZ-induced seizures in animals that survived ([1]; pure THCV medium dose 0.25 mg/kg vs vehicle, 80 mg/kg PTZ, p=0.03): significantly shorter
percentage of animals showing bilateral forelimb clonus with rearing and falling ([2]; 0.25 mg/kg THCV): significant increase
percentage of animals showing bilateral forelimb clonus with rearing and falling ([2]; THCV doses other than 0.25 mg/kg (0.025, 2.5 mg/kg)): this effect was not seen at any other dose
latency to the onset of seizure ([2]; pure THCV 0.025, 0.25, 2.5 mg/kg IP): No significant effect
mean maximum severity of seizure ([2]; pure THCV 0.025, 0.25, 2.5 mg/kg): no effect
percentage mortality vs control ([2]; pure THCV any dose): No significant change
percentage of animals showing bilateral forelimb clonus ([2]; pure THCV any dose): no significant changes
percentage of animals showing tonic-clonic seizures ([2]; pure THCV any dose): no significant changes
percentage of animals showing unilateral forelimb clonus ([2]; pure THCV any dose): no significant changes
